Activity calls are given as the source filed them. No cut-off for these calls is given here.
What was measured:
[1] = target: T1, Gamma-aminobutyric acid receptor subunit rho-1 (Homo sapiens, UniProt P24046); assay: Antagonist activity at human recombinant GABAA rho1 receptor expressed in Xenopus laevis assessed as inhibition of GABA-induced chloride current production after 2 to 5 days by two-electrode voltage-clamp electrophysiological assay
[2] = target: T2, GABA-A receptor; alpha-1/beta-2/gamma-2 (Homo sapiens) (UniProt P14867+P47870+P18507); assay: Agonist activity at human recombinant GABAAalpha1beta2gamma2L receptor expressed in Xenopus laevis assessed as induction of chloride current production at 300 uM after 2 to 5 days by two-electrode voltage-clamp electrophysiological assay relative to GABA
[3] = target: T2, GABA-A receptor; alpha-1/beta-2/gamma-2 (Homo sapiens); assay: Antagonist activity at human recombinant GABAAalpha1beta2gamma2L receptor expressed in Xenopus laevis assessed as inhibition of GABA-induced chloride current production at 300 uM after 2 to 5 days by two-electrode voltage-clamp electrophysiological assay relative to control
[4] = target: T1, Gamma-aminobutyric acid receptor subunit rho-1; assay: Antagonist activity at human recombinant GABAA rho1 receptor expressed in Xenopus laevis assessed as inhibition of GABA-induced chloride current production at 300 uM after 2 to 5 days by two-electrode voltage-clamp electrophysiological assay relative to control

T1 sequence (P24046 whole entry): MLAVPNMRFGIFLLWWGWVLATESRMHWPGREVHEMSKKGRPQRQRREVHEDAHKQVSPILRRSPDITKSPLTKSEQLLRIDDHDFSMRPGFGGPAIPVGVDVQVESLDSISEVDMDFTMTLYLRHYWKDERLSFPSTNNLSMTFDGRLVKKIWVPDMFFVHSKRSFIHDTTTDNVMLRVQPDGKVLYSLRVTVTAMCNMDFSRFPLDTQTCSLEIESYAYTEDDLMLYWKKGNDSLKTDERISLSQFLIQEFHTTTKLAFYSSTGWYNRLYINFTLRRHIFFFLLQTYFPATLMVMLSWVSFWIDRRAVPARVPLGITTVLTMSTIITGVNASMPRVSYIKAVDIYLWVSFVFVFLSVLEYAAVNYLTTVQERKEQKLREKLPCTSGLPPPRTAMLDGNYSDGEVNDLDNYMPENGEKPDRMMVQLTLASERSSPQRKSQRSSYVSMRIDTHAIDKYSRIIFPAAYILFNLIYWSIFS

SMILES | IC50 [1] | Activity [2] | inhibition [3] | inhibition [4]
C=CCONC(=O)C1=CCC(N)C1 (racemic) | 115 µM | 1.7% | – | –
NC(=O)C1=CCC(N)C1 (racemic) | 9.6 µM | – | 23.3% | –
CNC(=O)C1=CCC(N)C1 (racemic) | 408 µM | inactive | inactive | –
CCCNC(=O)C1=CCC(N)C1 (racemic) | 570 µM | inactive | inactive | –
NC1CC=C(C(=O)NO)C1 (racemic) | 12.9 µM | 4.3% | – | –
NC1CC=C(C(=O)O)C1 (racemic) | 6.6 µM | 59.7% | – | –
CONC(=O)C1=CCC(N)C1 (racemic) | 81.5 µM | 6.3% | – | –
CCONC(=O)C1=CCC(N)C1 (racemic) | 153 µM | 2.5% | – | –
CCCCCNC(=O)C1=CCC(N)C1 (racemic) | – | inactive | inactive | 20.5%
Cc1ccc(NC(=O)C2=CCC(N)C2)cc1 (racemic) | – | inactive | inactive | 11.3%

Reference: ChEMBL document CHEMBL2396533, “Γ-aminobutyric acid(C) (GABAC) selective antagonists derived from the bioisosteric modification of 4-aminocyclopent-1-enecarboxylic acid: amides and hydroxamates” (J Med Chem, 2013)
